According to patent publication US20030013637A1, “Novel anti-autoimmune composition by inhibition of GRF action” (priority 2001, published 2003):

Test system: EAE-induced PLSJLF1/J mice
Test: Effect of GRF antagonist administration on experimental autoimmune encephalomyelitis (EAE) induced by rabbit MBP immunization and pertussis toxin
Type: in vivo
Protocol: In order to investigate the affect of the administration of GRF antagonist on the onset of autoimmune disease, studies were conducted using experimental autoimmune encephalomyelitis (EAE), which is an experimental animal model of human multiple sclerosis.
Wild mice (PLSJLF1/J) (females purchased from The Jackson Laboratory) were used in the experiment. The mice were purchased at five weeks of age, and were reared under artificial lighting from 8:00 am to 8:00 pm every day throughout the experiment. The animals were allowed free access to water and solid food (CE-2; Japan CLEA).
First, these mice (total ten animals) were sensitized by subcutaneous administration in the femoral area of 100 μL of an emulsion in a 1:1 mixture of complete Freund's adjuvant (CFA) (Difco Co.) to 2 mg/mL rabbit myelin basic protein (MBP) (manufactured by Sigma Co.) dissolved in physiological saline (manufactured by Otsuka Pharmaceutical Co. Ltd.). Pertussis toxin (manufactured by List Biological Laboratories) (200 ng) dissolved in physiological saline (manufactured by Otsuka Pharmaceutical Co. Ltd.) was intra-abdominally administered immediately after and two days after sensitization. In this manner, experimental autoimmune encephalomyelitis (EAE) was induced.
Next, GRF antagonist was administered in compliance with the following procedures. The mice (total of ten animals) that had been MBP sensitized and administered pertussis toxin were divided into two groups. One group (five animals) was subcutaneously administered in the dorsal neck region 30 μg of GRF antagonist (MZ-4-71; manufactured by the US company Calbiochem Novabiochem) per mouse once per day from the eighth to 15th day after MBP sensitization (MZ-4-71 administration group). The other group (five animals) was subcutaneously administered in the dorsal neck region an equal amount of physiological saline in the same way as a control once per day from the eighth to 15th day after MBP sensitization (saline administration group). All animals were allowed free access to food and water throughout the entire rearing period including during the aforementioned experimental period.
The body weight of each mouse was measured every day. The EAE symptoms were observed. and EAE symptom scores were recorded based on the following criteria.
0: No symptoms, 1: Paralysis of tail, 2: Mild paralysis of rear legs, 3: Moderate to severe paralysis of rear legs or mild paralysis of front legs, or both, 4: Complete paralysis of rear legs or moderate to severe paralysis of front legs, or both, 5: Paralysis of all four limbs or struggling with death, 6: Death

Substance: [Ibu^0, D-Arg^2, Phe(4-Cl)^6, Abu^15, Nle^27]hGHRH-(1-28)Agm [MZ-4-71]
- beginning of EAE onset (PLSJLF1/J mice, 30 μg per mouse s.c. once per day, day 8 to 15 after MBP sensitization, FIG. 2(A)): 11 post-sensitization day
- beginning of flare-ups (after remission, 30 μg per mouse s.c. once per day, day 8-15): 20 post-sensitization day
- mean EAE score (beginning post-sensitization day 17, remissions in all the mice, 30 μg per mouse s.c. once per day, day 8-15): 0
- mean EAE score (post-sensitization day 13, 30 μg per mouse s.c. once per day, day 8-15, score scale 0-6): 0.3
- peak mean EAE score (post-sensitization day 23, peak over subsequent observation period, 30 μg per mouse s.c. once per day, day 8-15): 2.2
- EAE onset percentage (post-sensitization day 26, 30 μg per mouse s.c. once per day, day 8-15, FIG. 2(B)): not more than 60%
- EAE scores compared to the saline administration group (time course of mean values, FIG. 2(A)): lower EAE scores
- beginning of EAE onset compared to the saline administration group (time course of onset percentage, FIG. 2(B)): a delay in the beginning of EAE onset
